From US7812015B2, “Prophylaxis and treatment of infectious diseases” (priority 2002, dated 2010)
Where two headings read alike, the source gives them in different places.

Experiments:
rhinovirus strain 14 = test: Infection of Hela epithelial cells with rhinovirus strain 14, cytotoxic effect by flow cytometry after FITC-annexin staining; assay type: cell-based, human; conditions: rhinovirus strain 14, 24 h, drug added in serum-free medium 30 min before infection
Source text: (§1) This was shown for Hela cells as example. […] Means±standard deviation for three experiments are shown. […] This is depicted in FIG. 2. […] Means±standard deviation of three experiments are depicted. […] 2. Infection with HIV

[1] = test system: rhinovirus strains (RV14, RV16); test: Infection of Hela epithelial cells with various rhinovirus strains, cytotoxic effect by FITC-annexin flow cytometry; assay type: cell-based, human; conditions: RV14 and RV16, 24 h, drug added in serum-free medium 30 min before infection
Source text: as §1

ceramide = test: Ceramide liberation in rhinovirus-infected Hela cells (DAG kinase assay); assay type: cell-based, human; conditions: Hela cells infected with rhinovirus strain 14, preincubation
Source text: as §1

Hela epithelial cells = test system: Hela epithelial cells
Protocol: (§2) The cells were infected with rhinoviruses (strain 14, MOI 25), and the sphingomyelinase activity in cell lysates was measured. For this purpose, the cells were washed after the infection, taken up in 250 mM sodium acetate (pH 5.0), 1.3 mM EDTA and 0.05% NP40, disrupted by ultrasound treatment with a sonicator probe at low energy, and incubated with [^14C]sphingomyelin (0.5 μCi/sample, 54.5 mCi/mmol; NEN) for 30 min The in vitro enzyme assay was stopped by adding 800 μl of a 2:1 column mixture of CHCl3 and CH3OH (v/v) and 200 μl of H2O, and the liberation of [^14C]phosphorylcholine into the aqueous supernatant was measured by scintigraphy after organic extraction. […] Hela cells were again infected with rhinoviruses (strain 14) for this purpose. Ceramide was measured by a diacylglycerol (DAG) kinase assay (Grassme et al., Cell 91, 605-615, 1997). Ceramide was converted into [^32P]-ceramide by adding DAG kinase and [^32P]γATP. The phosphorylated ceramide was fractionated by thin layer chromatography and determined by scintigraphy. […] Infection of human epithelial cells by rhinoviruses was measured in flow cytometric analyses of the cytopathic effect of the viruses. […] 2.

[2] = target: T1, acid sphingomyelinase (ASM) (Homo sapiens, UniProt P17405); test: Acid sphingomyelinase activity in lysates of Hela cells infected with rhinovirus strain 14 ([14C]sphingomyelin assay); assay type: cell-based; conditions: rhinovirus strain 14, MOI 25, preincubation with inhibitor
T1 construct: endogenous in cells; host or cells: HeLa cells infected with rhinovirus strain 14
Protocol: as §2

T1 sequence (P17405 47-631): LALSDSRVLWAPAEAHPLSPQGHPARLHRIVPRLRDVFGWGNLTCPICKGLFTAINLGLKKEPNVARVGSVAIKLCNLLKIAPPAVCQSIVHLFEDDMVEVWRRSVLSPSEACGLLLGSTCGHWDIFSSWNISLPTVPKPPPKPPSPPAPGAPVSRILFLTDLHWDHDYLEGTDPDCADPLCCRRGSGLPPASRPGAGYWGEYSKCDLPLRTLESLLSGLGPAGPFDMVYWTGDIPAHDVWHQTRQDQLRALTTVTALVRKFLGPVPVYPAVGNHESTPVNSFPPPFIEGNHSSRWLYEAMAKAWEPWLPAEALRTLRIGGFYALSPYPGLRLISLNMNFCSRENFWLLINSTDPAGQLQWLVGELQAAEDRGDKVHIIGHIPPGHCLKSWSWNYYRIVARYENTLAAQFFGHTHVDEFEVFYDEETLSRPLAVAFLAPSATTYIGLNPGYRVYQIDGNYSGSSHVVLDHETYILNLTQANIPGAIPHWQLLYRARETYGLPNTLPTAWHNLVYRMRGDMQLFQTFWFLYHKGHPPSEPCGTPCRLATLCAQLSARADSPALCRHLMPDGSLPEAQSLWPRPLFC

| Compound | inhibition of viral infection (cytotoxic effect of the virus) (rhinovirus strain 14) | inhibition of viral infection (cytotoxic effect of the viruses) [1] | liberation of ceramide after preincubation of the cells (ceramide) | cytotoxic effect of the drug itself on the cells (Hela epithelial cells; Hela cells) | activity of acid sphingomyelinase after preincubation of the cells [2] | cytotoxic effect of the drug itself on the cells (Hela epithelial cells) |
| --- | --- | --- | --- | --- | --- | --- |
| CN(C)CCC=C1c2ccccc2CCc2ccccc21 [amitryptiline] | almost completely inhibits the viral infection | almost completely inhibit the viral infection | abolishes the liberation of ceramide | no cytotoxic effect | blocks the activity of acid sphingomyelinase |  |
| CN(C)CCCN1c2ccccc2CCc2ccccc21 [imipramine] | almost completely inhibits the viral infection | almost completely inhibit the viral infection |  |  |  | no cytotoxic effect |
